Measurements as given in the supplement of paper PMC10307832.

Experiments:
Test in all cases: relative viability (nuclei count vs DMSO), 5 days (fraction); higher = more cells survive
Erlotinib + AZD7762 = compound: C#Cc1cccc(Nc2ncnc3cc(OCCOC)c(OCCOC)cc23)c1 [Erlotinib] + NC(=O)Nc1cc(-c2cccc(F)c2)sc1C(=O)N[C@H]1CCCNC1 [AZD7762] (partner 0.2 µM)
Outline: (§1)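 The day after seeding in 1536-well plates, lung cancer cell lines were treated by pin tool with a single drug, or with a fixed anchor-drug dose together with five library-drug doses (not always all listed) in √10 steps. After 5 days, a combined fix-and-stain solution (final 0.05% Triton X-100, 1% formaldehyde, 1 ug/ml Hoechst) was added. Nuclei counted on 4× images gave relative viability as treated counts over vehicle counts, reported as the median of duplicate plates.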

Erlotinib + Alpelisib = compound: C#Cc1cccc(Nc2ncnc3cc(OCCOC)c(OCCOC)cc23)c1 [Erlotinib] + Cc1nc(NC(=O)N2CCC[C@H]2C(N)=O)sc1-c1ccnc(C(C)(C)C(F)(F)F)c1 [Alpelisib] (partner 2 µM)
Outline: as §1

AT9283 + Pemetrexed = compound: O=C(Nc1c[nH]nc1-c1nc2ccc(CN3CCOCC3)cc2[nH]1)NC1CC1 [AT9283] + Nc1nc2[nH]cc(CCc3ccc(C(=O)N[C@@H](CCC(=O)O)C(=O)O)cc3)c2c(=O)[nH]1 [Pemetrexed] (partner 0.2 µM)
Outline: as §1

Erlotinib + Linsitinib = compound: C#Cc1cccc(Nc2ncnc3cc(OCCOC)c(OCCOC)cc23)c1 [Erlotinib] + C[C@]1(O)C[C@@H](c2nc(-c3ccc4ccc(-c5ccccc5)nc4c3)c3c(N)nccn32)C1 [Linsitinib] (partner 1 µM)
Outline: as §1

AT9283 + Trametinib = compound: O=C(Nc1c[nH]nc1-c1nc2ccc(CN3CCOCC3)cc2[nH]1)NC1CC1 [AT9283] + CC(=O)Nc1cccc(-n2c(=O)n(C3CC3)c(=O)c3c(Nc4ccc(I)cc4F)n(C)c(=O)c(C)c32)c1 [Trametinib] (partner 0.02 µM)
Outline: as §1

Row | Cell Line | relative viability (Erlotinib + AZD7762; first compound 0.02 µM) | relative viability (Erlotinib + AZD7762; first compound 0.2 µM) | relative viability (Erlotinib + AZD7762; first compound 0.6325 µM) | relative viability (Erlotinib + AZD7762; first compound 2 µM) | relative viability (Erlotinib + Alpelisib; first compound 0.02 µM) | relative viability (Erlotinib + Alpelisib; first compound 0.2 µM) | relative viability (Erlotinib + Alpelisib; first compound 0.6325 µM) | relative viability (Erlotinib + Alpelisib; first compound 2 µM) | relative viability (AT9283 + Pemetrexed; first compound 0.003 µM) | relative viability (AT9283 + Pemetrexed; first compound 0.03 µM) | relative viability (AT9283 + Pemetrexed; first compound 0.09487 µM) | relative viability (AT9283 + Pemetrexed; first compound 0.3 µM) | relative viability (Erlotinib + Linsitinib; first compound 0.02 µM) | relative viability (Erlotinib + Linsitinib; first compound 0.2 µM) | relative viability (Erlotinib + Linsitinib; first compound 2 µM) | relative viability (AT9283 + Trametinib; first compound 0.003 µM) | relative viability (AT9283 + Trametinib; first compound 0.03 µM) | relative viability (AT9283 + Trametinib; first compound 0.09487 µM) | relative viability (AT9283 + Trametinib; first compound 0.3 µM) | relative viability (Erlotinib + Linsitinib; first compound 0.6325 µM)
1 | NCI-H2347 | 0.689 | 0.856 | 0.783 | 0.655 | 1.33 | 0.966 | 1.13 | 0.893 | 0.419 | 0.417 | 0.376 | 0.338 | 1.03 | 1.04 | 0.834 | 0.292 | 0.269 | 0.275 | 0.262 | 
2 | NCI-H3122 | 0.948 | 1.05 | 1 |  |  | 0.882 | 0.872 | 0.736 | 0.2 | 0.191 | 0.176 | 0.123 | 1.04 | 1.06 | 0.961 | 0.277 | 0.247 | 0.168 | 0.097 | 1.02
3 | HARA | 0.385 | 0.383 | 0.333 | 0.259 | 0.946 | 0.619 | 0.646 | 0.256 | 0.217 | 0.239 | 0.167 | 0.166 | 1.13 | 0.834 | 0.197 | 0.691 | 0.203 | 0.118 | 0.151 | 0.59
4 | HCC-78 | 0.5 | 0.55 | 0.524 | 0.369 | 0.353 | 0.337 | 0.305 | 0.186 | 0.905 | 0.896 | 0.924 | 0.919 | 0.5 | 0.439 | 0.383 | 0.794 | 0.745 | 0.353 | 0.222 | 0.401
5 | HCC-366 | 0.346 | 0.258 | 0.191 | 0.0996 | 0.46 | 0.25 | 0.402 | 0.209 | 0.169 | 0.2 | 0.101 | 0.067 | 0.752 | 0.52 | 0.564 | 0.349 | 0.256 | 0.173 | 0.0874 | 0.574
6 | PC-14 | 0.206 | 0.178 | 0.12 | 0.13 | 0.562 | 0.133 | 0.171 | 0.112 | 0.145 | 0.0954 | 0.0681 | 0.0563 | 0.426 | 0.289 | 0.219 | 0.827 | 0.459 | 0.131 | 0.0923 | 0.269
7 | LK-2 | 0.376 | 0.366 | 0.438 | 0.268 | 0.932 | 0.976 | 1.33 | 1.03 | 0.196 | 0.135 | 0.136 | 0.105 | 0.557 | 0.43 | 0.377 | 0.746 | 0.759 | 0.195 | 0.194 | 0.869
8 | NCI-H358 | 0.537 | 0.361 | 0.429 | 0.201 | 0.885 | 0.693 | 0.474 | 0.358 | 0.164 | 0.124 | 0.111 | 0.112 | 0.817 | 0.558 | 0.292 | 0.144 | 0.105 | 0.081 | 0.0743 | 0.377
9 | UMC-11 |  |  |  |  | 0.986 | 1.06 | 1.21 | 1.05 | 0.768 | 0.158 | 0.196 | 0.193 | 1.04 | 1.05 | 0.945 | 0.679 | 0.134 | 0.126 | 0.164 | 1.16
10 | LCLC-97TM1 | 0.291 | 0.309 | 0.356 | 0.196 | 0.218 |  | 0.316 | 0.259 | 0.19 | 0.134 | 0.0995 | 0.0907 | 0.212 |  | 0.196 | 0.203 | 0.159 | 0.119 | 0.123 | 0.196
11 | HOP-62 | 0.702 | 0.638 | 0.541 |  |  | 1.05 | 1.05 | 0.977 | 0.439 | 0.192 | 0.144 | 0.153 | 1.14 | 0.959 | 0.912 | 0.384 | 0.431 | 0.194 | 0.188 | 1.01
12 | NCI-H1703 | 0.113 | 0.133 | 0.142 | 0.115 | 0.367 | 0.321 | 0.352 | 0.296 |  |  |  |  | 0.749 | 0.818 | 0.924 |  |  |  |  | 1.08
13 | NCI-H520 |  |  |  |  | 0.932 | 0.934 | 1.17 |  | 0.702 | 0.302 | 0.303 | 0.198 | 0.98 | 0.915 | 0.965 | 0.719 | 0.276 | 0.291 | 0.149 | 1.03
14 | NCI-H2126 | 1.03 | 1.01 | 0.892 | 0.688 | 0.781 | 0.644 | 0.537 | 0.379 | 0.684 | 0.693 | 0.559 | 0.358 |  | 0.597 | 0.419 | 0.573 | 0.566 | 0.38 | 0.293 | 0.548
15 | NCI-H2087 | 1.4 | 1.33 | 1.29 | 1.17 | 1.3 |  | 1.09 | 1.04 | 0.664 | 0.586 | 0.261 | 0.183 | 1.03 | 1.14 | 0.828 | 0.176 | 0.096 | 0.124 | 0.107 | 1.06
16 | NCI-H1355 | 0.794 | 0.687 | 0.674 | 0.682 |  | 0.742 | 0.685 | 0.518 | 0.989 | 1.02 | 0.719 | 0.301 | 0.921 | 0.815 | 0.559 | 0.446 | 0.427 | 0.354 | 0.179 | 0.723
17 | Calu-6 |  |  |  |  | 0.983 | 1.06 | 1.04 | 0.909 |  |  |  |  | 1.01 | 0.913 | 0.816 |  |  |  |  | 0.902
